26 molecules from patent US20260125371A1, “METHOD FOR INHIBITING CLOSTRIDIOIDES DIFFICILE SPORE GERMINATION” (UNIVERSITY OF NOTRE DAME DU LAC, priority 2022, published 2026) can be followed below.

One test relates to C. difficile ATCC 43255. Nature of the test: Determination of minimal-inhibitory concentrations (microdilution), C. difficile ATCC 43255. The class given is cell-based, Clostridioides difficile. Conditions: for MIC C. difficile: Table 1; for MIC: Clostridioides difficile; for ATCC43255 MIC: C. difficile ATCC43255. (Dilution methods test growth across graded concentrations, often in twofold steps.)

The subject of the next test is THP-1 cells. Description: Lactate dehydrogenase (LDH) cytotoxicity assay. The class given is cell-based, human. Conditions: for IC50: Homo sapiens, read-out: LDH (IC50).
The next test deals with S. aureus. Description: MIC against S. aureus strains. The class given is cell-based. The following applies: S. aureus ATCC 29213, 24 h; for MIC: Staphylococcus aureus, ATCC29213, 24 h, read-out: MIC (μg/mL) 24 h.
Test [1] deals with C. difficile strain ATCC43255 spores. Description: Spore germination inhibition assay. Format: cell-based, Clostridioides difficile. The following applies: compound 45 μM, germinant 6 mM taurocholate and 12 mM glycine, OD600 over 60 min, duplicate; for inhibition at 45 µM: Clostridioides difficile, 1 h.
Where [2] appears, read: C. difficile ATCC 43255, 48-h incubation.
The mark [3] stands for this setting: ATCC43255, 24 h, C. difficile ATCC 43255, 24 h, read-out: MIC (μg/mL) 24 h.
The mark [4] stands for this setting: ATCC43255, Table 1, strain ATCC 43255, read-out: MIC C. difficile.
Where [5] appears, read: ATCC43255, C. difficile ATCC43255, read-out: ATCC43255 MIC.

≈ marks a conversion by molar mass, not a printed value. Where two headings read alike, the source gives them in different places.

With `Oc1ccc(-c2nc(-c3ccc(Oc4ccc(C(F)(F)F)cc4)cc3)no2)cc1` [Compound 9], the “MIC (μg/mL) 48 h” value against C. difficile ATCC 43255 (setting [2]) stood at 2 µg/mL (≈ 5.02 µM). For the same molecule, the “MIC (μg/mL) 24 h” value in the test with C. difficile ATCC 43255 (C. difficile ATCC 43255, 24 h) was found to be 2 µg/mL (≈ 5.02 µM); with S. aureus, 1 µg/mL (≈ 2.51 µM). Further, in the test with C. difficile ATCC 43255 (strain ATCC 43255), the “MIC C. difficile” value turned out to be 2 µg/mL (≈ 5.02 µM). For the same molecule, in the test with THP-1 cells (THP-1 cells, 24 h), the “LDH (IC50)” value is 17 ± 1 µg/mL.
Turning to `Oc1ccc(-c2nc(-c3ccc(Oc4ccc(C(F)(F)F)cc4)cc3)no2)cc1F` [Compound 10], in the test with C. difficile ATCC 43255 (setting [2]), the “MIC (μg/mL) 48 h” value was 4 µg/mL (≈ 9.61 µM). In addition, the “MIC (μg/mL) 24 h” value in the test with C. difficile ATCC 43255 (C. difficile ATCC 43255, 24 h) was found to be 4 µg/mL (≈ 9.61 µM); in the test with S. aureus, 2 µg/mL (≈ 4.8 µM). The “MIC C. difficile” value against C. difficile ATCC 43255 (strain ATCC 43255) was found to be 4 µg/mL (≈ 9.61 µM). Further, the “LDH (IC50)” value with THP-1 cells (THP-1 cells, 24 h) stood at 5.2 ± 0.02 µg/mL.
Consider `Oc1c(F)cc(-c2nc(-c3ccc(Oc4ccc(C(F)(F)F)cc4)cc3)no2)cc1F` [Compound 11], for which the “MIC (μg/mL) 48 h” value against C. difficile ATCC 43255 (setting [2]) amounted to 4 µg/mL (≈ 9.21 µM). The “MIC (μg/mL) 24 h” value in the test with C. difficile ATCC 43255 (C. difficile ATCC 43255, 24 h) was 4 µg/mL (≈ 9.21 µM); against S. aureus, 2 µg/mL (≈ 4.6 µM). In the test with C. difficile ATCC 43255 (strain ATCC 43255), the “MIC C. difficile” value was 4 µg/mL (≈ 9.21 µM). For the same molecule, the “LDH (IC50)” value with THP-1 cells (THP-1 cells, 24 h) came out at 18 ± 2 µg/mL.
As to `O=[N+]([O-])c1cc(-c2nc(-c3ccc(Oc4ccc(C(F)(F)F)cc4)cc3)no2)cnc1O` [Compound 16], in the test with C. difficile ATCC 43255 (setting [2]), the “MIC (μg/mL) 48 h” value stood at 2 µg/mL (≈ 4.5 µM). In addition, the “MIC (μg/mL) 24 h” value was found to be 2 µg/mL (≈ 4.5 µM) in the test with C. difficile ATCC 43255 (C. difficile ATCC 43255, 24 h) and 8 µg/mL (≈ 18 µM) against S. aureus. The “MIC C. difficile” value against C. difficile ATCC 43255 (strain ATCC 43255) is 2 µg/mL (≈ 4.5 µM). Besides, the “LDH (IC50)” value in the test with THP-1 cells (THP-1 cells, 24 h) came out at 37 ± 11 µg/mL.
As for `Cl.NCc1ccc(-c2nc(-c3ccc(Oc4ccc(C(F)(F)F)cc4)cc3)no2)cc1` [Compound 17, (4-(3-(4-(4-(Trifluoromethyl)phenoxy)phenyl)-1,2,4-oxadiazol-5-yl)phenyl) methanamine hydrochloride salt], the MIC was 4 µg/mL in the test on C. difficile ATCC 43255 (setting [3]), 4 µg/mL in the test with C. difficile ATCC 43255 (setting [4]) and 2 to 4 µg/mL in the test with S. aureus. The IC50 – broadly, the midpoint of a concentration-inhibition curve – in the test with THP-1 cells (THP-1 cells, 24 h) is 4.4 ± 0.7 µg/mL.
With `O=[N+]([O-])c1c[nH]nc1-c1nc(-c2ccc(Oc3ccc(C(F)(F)F)cc3)cc2)no1` [Compound 30], the “MIC (μg/mL) 48 h” value against C. difficile ATCC 43255 (setting [2]) worked out at 4 µg/mL (≈ 9.59 µM). Also, the “MIC (μg/mL) 24 h” value is 4 µg/mL (≈ 9.59 µM) against C. difficile ATCC 43255 (C. difficile ATCC 43255, 24 h) and 2 µg/mL (≈ 4.79 µM) with S. aureus. The “MIC C. difficile” value in the test on C. difficile ATCC 43255 (strain ATCC 43255) stood at 4 µg/mL (≈ 9.59 µM). In addition, in the test on THP-1 cells (THP-1 cells, 24 h), the “LDH (IC50)” value is 21 ± 5 µg/mL.
Turning to `Oc1ccc(-c2nc(-c3ccc(OC4CCCC=C4Br)cc3)no2)cc1` (stereo not shown) [Compound 99, 4-(3-(4-((2-Bromocyclohex-2-en-1-yl)oxy)phenyl)-1,2,4-oxadiazol-5-yl)phenol], the MIC in the test with C. difficile ATCC 43255 (setting [3]) was 2 µg/mL (≈ 4.84 µM); with C. difficile ATCC 43255 (ATCC43255, 48 h, C. difficile ATCC 43255, 48-h incubation, read-out: MIC (μg/mL) 48 h), 2 µg/mL (≈ 4.84 µM); in the test with C. difficile ATCC 43255 (setting [4]), 2 µg/mL (≈ 4.84 µM); in the test with S. aureus, 4 µg/mL (≈ 9.68 µM). Moreover, in the test with THP-1 cells (THP-1, 24 h), the IC50 amounted to 8.4 ± 0.3 µg/mL (≈ 20.3 µM).
As for `O=[N+]([O-])c1c[nH]nc1-c1nc(-c2ccc(OC(F)(F)F)cc2)no1` [Compound 115, 5-(4-Nitro-1H-pyrazol-3-yl)-3-(4-(trifluoromethoxy)phenyl)-1,2,4-oxadiazole], the figures for the MIC in the test on C. difficile ATCC 43255 (setting [3]) and in the test with C. difficile ATCC 43255 (setting [4]) were 2 µg/mL (≈ 5.86 µM) and 4 µg/mL (≈ 11.7 µM), respectively. Moreover, the IC50 in the test with THP-1 cells (THP-1, 24 h) amounted to 25 ± 4 µg/mL (≈ 73.3 µM).
`O=[N+]([O-])c1c[nH]nc1-c1nc(-c2ccc3oc4ccccc4c3c2)no1` [Compound 118, 3-(Dibenzo[b,d]furan-2-yl)-5-(4-nitro-1H-pyrazol-3-yl)-1,2,4-oxadiazole]: the MIC with C. difficile ATCC 43255 (setting [3]) was 4 µg/mL (≈ 11.5 µM); in the test with C. difficile ATCC 43255 (setting [4]), 4 µg/mL (≈ 11.5 µM); with S. aureus, 2 µg/mL (≈ 5.76 µM). Besides, in the test with THP-1 cells (THP-1, 24 h), the IC50 turned out to be 9.8 ± 3.3 µg/mL (≈ 28.2 µM).
As for `Oc1ccc(-c2noc(-c3ccc(OC4CCCC4)cc3)n2)cc1` [Compound 137, 5-(4-(Cyclopentyloxy)phenyl)-3-(4-hydroxyphenyl)-1,2,4-oxadiazole], the MIC with C. difficile ATCC 43255 (setting [3]) and with C. difficile ATCC 43255 (setting [4]) was 4 µg/mL (≈ 12.4 µM) throughout. For the same molecule, the IC50 with THP-1 cells (THP-1 cells, 24 h) was determined as 8.5 ± 0.2 µg/mL (≈ 26.4 µM).
As to `O=[N+]([O-])c1c[nH]nc1-c1nc(-c2ccc(Oc3ccc(C(F)(F)F)cc3)cc2)no1` [DR-04-089], the “ATCC43255 MIC” value in the test on C. difficile ATCC 43255 is greater than 128 mg/L. Besides, in test [1], the “% Spore Germination Inhibition at 45 μM” value is 20 ± 3%.
Turning to `NCc1ccc(-c2nc(-c3ccc(Oc4ccc(F)cc4)cc3)no2)cc1` [DR-05-250], the MIC in the test on C. difficile ATCC 43255 (setting [5]) is greater than 128 µg/mL. Moreover, in test [1], the inhibition (usually the change of the read-out against control, counted positive when it falls) at 45 µM is 73 ± 5%.
As to `NCCCCc1nc(-c2ccc(Oc3ccc(C(F)(F)F)cc3)cc2)no1` [DR-06-025], the MIC with C. difficile ATCC 43255 (setting [5]) is greater than 128 µg/mL. For the same molecule, in test [1], the inhibition at 45 µM was found to be 44 ± 2%.
Consider `Oc1ccc(-c2nc(-c3ccc(Oc4ccc(I)cc4)cc3)no2)cc1` [MAB-01-250A], for which the “ATCC43255 MIC” value in the test with C. difficile ATCC 43255 was greater than 128 mg/L. Also, the “% Spore Germination Inhibition at 45 μM” value in test [1] was 62 ± 2%.
In the case of `Nc1cc(Oc2ccccc2)cnc1-c1noc(-c2ccc(O)cc2)n1` [MAB-02-27A], the MIC in the test on C. difficile ATCC 43255 (setting [5]) is greater than 128 µg/mL. In addition, the inhibition at 45 µM in test [1] turned out to be 17 ± 1%.
For the molecule `O=[N+]([O-])c1ccccc1Oc1ccc(-c2noc(-c3ccc(O)cc3)n2)nc1` [MAB-02-29A], in the test on C. difficile ATCC 43255 (setting [5]), the MIC is greater than 128 µg/mL. The molecule also returned an inhibition at 45 µM in test [1] of 26 ± 1%.
Taken in the same sequence, the figures for `Oc1ccc(-c2nc(-c3ccc(Oc4ccccc4CBr)cc3)no2)cc1` [MAB-02-59A] were greater than 128 µg/mL and 30 ± 3%.
Take `NCc1ccc(-c2nc(-c3ccc(OC4CCCC4)cc3)no2)cc1` [YQ-4-81]: the MIC in the test with C. difficile ATCC 43255 (setting [5]) was 4 µg/mL (≈ 11.9 µM). For the same molecule, the inhibition at 45 µM in test [1] was determined as 41 ± 1%.
On to `NCc1ccc(-c2nc(-c3ccc(Oc4ccc(F)c(F)c4)cn3)no2)cc1` [YQ-4-99], for which the MIC in the test with C. difficile ATCC 43255 (setting [5]) is 8 µg/mL (≈ 21 µM). Besides, in test [1], the inhibition at 45 µM came out at 44 ± 3%.
In the case of `NCc1ccc(-c2nc(-c3ccnc(Oc4ccc(C(F)(F)F)cc4)c3)no2)cc1` [YQ-4-104], the MIC in the test with C. difficile ATCC 43255 (setting [5]) was found to be 8 µg/mL (≈ 19.4 µM). The same molecule returned an inhibition at 45 µM in test [1] of 74 ± 5%.
For the molecule `CC(C)Oc1ccc(-c2noc(-c3ccc(CN)cc3)n2)cc1C(F)(F)F` [YQ-4-155], in the test with C. difficile ATCC 43255 (setting [5]), the MIC is 16 µg/mL (≈ 42.4 µM). In test [1], this molecule yielded an inhibition at 45 µM of 33 ± 1%.
For `NCc1ccc(-c2noc(-c3ccnc(-c4ccc(C(F)(F)F)cc4)c3)n2)cc1` [YQ-4-161], in the test with C. difficile ATCC 43255 (setting [5]), the MIC was greater than 128 µg/mL. The molecule further had an inhibition at 45 µM in test [1] of 55 ± 1%.
Taken in the same sequence, the figures for `NCc1ccc(-c2nc(-c3ccnc(-c4ccc(C(F)(F)F)cc4)c3)no2)cc1` [YQ-4-163] were 16 µg/mL (≈ 40.4 µM) and 68 ± 5%.
Taken in the same sequence, the figures for `NCc1ccc(-c2nc(-c3ccc(OC4CCCCC4)cc3)no2)cc1` [YQ-4-165] were 8 µg/mL (≈ 22.9 µM) and 50 ± 2%.
Take `C#Cc1ccc(Oc2cnc(-c3noc(-c4ccc(CN)cc4)n3)cc2C2(C(F)(F)F)N=N2)cc1` [YQ-4-169]: in the test on C. difficile ATCC 43255, the “ATCC43255 MIC” value is 8 mg/L. Also, in test [1], the “% Spore Germination Inhibition at 45 μM” value amounted to 63 ± 3%.
Regarding `NCCc1ccc(-c2nc(-c3ccc(Oc4ccc(F)cc4)cn3)no2)cc1` [YQ-4-170], the MIC with C. difficile ATCC 43255 (setting [5]) was determined as 8 µg/mL (≈ 21.3 µM). Further, the inhibition at 45 µM in test [1] was determined as 48 ± 2%.
